Each molecule was assayed on HCV 1b-377-neo replicon cells (assay: HCV replicon FRET assay). Settings: Hepatitis C virus; HCV replicon; read-out: Activity (EC50).
Assay type: cell-based

| SMILES | EC50 |
| --- | --- |
| CC(C)c1scnc1C(=O)N1CCC[C@H]1C(=O)Nc1ccc(/C=C/c2ccc(NC(=O)[C@@H]3CCCN3C(=O)c3ncsc3C(C)C)cc2)cc1 [Example 190] | 100 to 1000 nM |
| O=C(Nc1ccc(/C=C/c2ccc(NC(=O)[C@@H]3CCCN3C(=O)c3cccnc3Cl)cc2)cc1)[C@@H]1CCCN1C(=O)c1cccnc1Cl [Example 191] | 1000 to 10000 nM |
| CSc1ncccc1C(=O)N1CCC[C@H]1C(=O)Nc1ccc(/C=C/c2ccc(NC(=O)[C@@H]3CCCN3C(=O)c3cccnc3SC)cc2)cc1 [Example 192] | 100 to 1000 nM |
| COc1ccc(C(=O)N2CCC[C@H]2C(=O)Nc2ccc(/C=C/c3ccc(NC(=O)[C@@H]4CCCN4C(=O)c4ccc(OC)nc4OC)cc3)cc2)c(OC)n1 [Example 193] | 1000 to 10000 nM |
| Cc1nc(C(F)(F)F)ccc1C(=O)N1CCC[C@H]1C(=O)Nc1ccc(/C=C/c2ccc(NC(=O)[C@@H]3CCCN3C(=O)c3ccc(C(F)(F)F)nc3C)cc2)cc1 [Example 194] | 100 to 1000 nM |
| O=C(Nc1ccc(/C=C/c2ccc(NC(=O)[C@@H]3CCCN3C(=O)c3ccc(C(F)(F)F)nc3Cl)cc2)cc1)[C@@H]1CCCN1C(=O)c1ccc(C(F)(F)F)nc1Cl [Example 195] | 1000 to 10000 nM |
| O=C(Nc1ccc(/C=C/c2ccc(NC(=O)[C@@H]3CCCN3C(=O)c3cccnc3Sc3ccccc3)cc2)cc1)[C@@H]1CCCN1C(=O)c1cccnc1Sc1ccccc1 [Example 196] | 1000 to 10000 nM |
| CCc1ccncc1C(=O)N1CCC[C@H]1C(=O)Nc1ccc(/C=C/c2ccc(NC(=O)[C@@H]3CCCN3C(=O)c3cnccc3CC)cc2)cc1 [Example 197] | 100 to 1000 nM |
| Cc1ccsc1C(=O)N1CCC[C@H]1C(=O)Nc1ccc(/C=C/c2ccc(NC(=O)[C@@H]3CCCN3C(=O)c3sccc3C)cc2)cc1 [Example 198] | 100 to 1000 nM |
| Cc1nnsc1C(=O)N1CCC[C@H]1C(=O)Nc1ccc(/C=C/c2ccc(NC(=O)[C@@H]3CCCN3C(=O)c3snnc3C)cc2)cc1 [Example 199] | 0.1 to 90 nM |
| Cc1ccoc1C(=O)N1CCC[C@H]1C(=O)Nc1ccc(/C=C/c2ccc(NC(=O)[C@@H]3CCCN3C(=O)c3occc3C)cc2)cc1 [Example 200] | 100 to 1000 nM |
| Cc1nocc1C(=O)N1CCC[C@H]1C(=O)Nc1ccc(/C=C/c2ccc(NC(=O)[C@@H]3CCCN3C(=O)c3conc3C)cc2)cc1 [Example 201] | 0.1 to 90 nM |
| Cc1noc(C)c1C(=O)N1CCC[C@H]1C(=O)Nc1ccc(/C=C/c2ccc(NC(=O)[C@@H]3CCCN3C(=O)c3c(C)noc3C)cc2)cc1 [Example 202] | 100 to 1000 nM |
| Cc1nc(C)c(C(=O)N2CCC[C@H]2C(=O)Nc2ccc(/C=C/c3ccc(NC(=O)[C@@H]4CCCN4C(=O)c4sc(C)nc4C)cc3)cc2)s1 [Example 203] | 100 to 1000 nM |
| Cc1onc(-c2ccccc2)c1C(=O)N1CCC[C@H]1C(=O)Nc1ccc(/C=C/c2ccc(NC(=O)[C@@H]3CCCN3C(=O)c3c(-c4ccccc4)noc3C)cc2)cc1 [Example 204] | 0.1 to 90 nM |
| CCc1cccc(CC)c1C(=O)N1CCC[C@H]1C(=O)Nc1ccc(/C=C/c2ccc(NC(=O)[C@@H]3CCCN3C(=O)c3c(CC)cccc3CC)cc2)cc1 [Example 205] | 1000 to 10000 nM |
| CCc1cccc(C)c1C(=O)N1CCC[C@H]1C(=O)Nc1ccc(/C=C/c2ccc(NC(=O)[C@@H]3CCCN3C(=O)c3c(C)cccc3CC)cc2)cc1 [Example 206] | 1000 to 10000 nM |
| Cn1cc(C(=O)N2CCC[C@H]2C(=O)Nc2ccc(/C=C/c3ccc(NC(=O)[C@@H]4CCCN4C(=O)c4cn(C)c5ccccc45)cc3)cc2)c2ccccc21 [Example 207] | 100 to 1000 nM |
| CC(C)(C)OC(=O)n1cc(C(=O)N2CCC[C@H]2C(=O)Nc2ccc(/C=C/c3ccc(NC(=O)[C@@H]4CCCN4C(=O)c4cn(C(=O)OC(C)(C)C)c5ccccc45)cc3)cc2)c2ccccc21 [Example 208] | 1000 to 10000 nM |
| O=C(Nc1ccc(/C=C/c2ccc(NC(=O)[C@@H]3CCCN3C(=O)c3c[nH]c4ccccc34)cc2)cc1)[C@@H]1CCCN1C(=O)c1c[nH]c2ccccc12 [Example 209] | 100 to 1000 nM |
| O=C(Nc1ccc(/C=C/c2ccc(NC(=O)[C@@H]3CCCN3C(=O)c3c[nH]cn3)cc2)cc1)[C@@H]1CCCN1C(=O)c1c[nH]cn1 [Example 210] | 1000 to 10000 nM |
| Cn1cncc1C(=O)N1CCC[C@H]1C(=O)Nc1ccc(/C=C/c2ccc(NC(=O)[C@@H]3CCCN3C(=O)c3cncn3C)cc2)cc1 [Example 211] | 0.1 to 90 nM |
| O=C(Nc1ccc(/C=C/c2ccc(NC(=O)[C@@H]3CCCN3C(=O)c3n[nH]c4ccccc34)cc2)cc1)[C@@H]1CCCN1C(=O)c1n[nH]c2ccccc12 [Example 212] | 0.1 to 90 nM |
| Cc1cccc(-n2cnc(C(=O)N3CCC[C@H]3C(=O)Nc3ccc(/C=C/c4ccc(NC(=O)[C@@H]5CCCN5C(=O)c5cn(-c6cccc(C)n6)cn5)cc4)cc3)c2)n1 [Example 213] | 1000 to 10000 nM |
| Cc1nc2sccn2c1C(=O)N1CCC[C@H]1C(=O)Nc1ccc(/C=C/c2ccc(NC(=O)[C@@H]3CCCN3C(=O)c3c(C)nc4sccn34)cc2)cc1 [Example 214] | 0.1 to 90 nM |
| O=C(Nc1ccc(/C=C/c2ccc(NC(=O)[C@@H]3C=CCN3C(=O)Cc3ccccn3)cc2)cc1)[C@@H]1C=CCN1C(=O)Cc1ccccn1 [Example 215] | 0.1 to 90 nM |

| SMILES | EC50 |
| --- | --- |
| CC(=O)N1CC=C[C@H]1C(=O)Nc1ccc(/C=C/c2ccc(NC(=O)[C@@H]3C=CCN3C(=O)Cc3ccccn3)cc2)cc1 [Example 216] | 0.1 to 90 nM |
| CC(=O)N1CC=C[C@H]1C(=O)Nc1ccc(/C=C/c2ccc(NC(=O)[C@@H]3C=CCN3C(C)=O)cc2)cc1 [Example 217] | 0.1 to 90 nM |
| O=C(Nc1ccc(/C=C/c2ccc(NC(=O)[C@@H]3C=CCN3C(=O)Cc3cccnc3)cc2)cc1)[C@@H]1C=CCN1C(=O)Cc1cccnc1 [Example 218] | 0.1 to 90 nM |
| CC(=O)N1CC=C[C@H]1C(=O)Nc1ccc(/C=C/c2ccc(NC(=O)[C@@H]3C=CCN3C(=O)Cc3cccnc3)cc2)cc1 [Example 219] | 0.1 to 90 nM |
| CC(=O)N1CC=C[C@H]1C(=O)Nc1ccc(/C=C/c2ccc(NC(=O)[C@@H]3C=CCN3C(=O)Cc3ccncc3)cc2)cc1 [Example 220] | 1000 to 10000 nM |
| O=C(Nc1ccc(/C=C/c2ccc(NC(=O)[C@@H]3C=CCN3C(=O)Cc3ccncc3)cc2)cc1)[C@@H]1C=CCN1C(=O)Cc1ccncc1 [Example 221] | 100 to 1000 nM |
| CN(C)[C@H]1C[C@@H](C(=O)Nc2ccc(/C=C/c3ccc(NC(=O)[C@@H]4C[C@H](N(C)C)CN4C(=O)OCc4ccccc4)cc3)cc2)N(C(=O)OCc2ccccc2)C1 [Example 223] | 0.1 to 90 nM |
| CCCOc1ccccc1C(=O)N1C[C@@H](N(C)C)C[C@H]1C(=O)Nc1ccc(CCc2ccc(NC(=O)[C@@H]3C[C@H](N(C)C)CN3C(=O)c3ccccc3OCCC)cc2)cc1 [Example 224] | 1000 to 10000 nM |
| CN(C)[C@H]1C[C@@H](C(=O)Nc2ccc(/C=C/c3ccc(NC(=O)[C@@H]4C[C@H](N(C)C)CN4C(=O)Cc4ccccc4)cc3)cc2)N(C(=O)Cc2ccccc2)C1 [Example 225] | 0.1 to 90 nM |
| CN(C)[C@H]1C[C@@H](C(=O)Nc2ccc(/C=C/c3ccc(NC(=O)[C@@H]4C[C@H](N(C)C)CN4C(=O)[C@H]4CCCO4)cc3)cc2)N(C(=O)[C@H]2CCCO2)C1 [Example 226] | 100 to 1000 nM |
| CCCOc1ccccc1C(=O)N1C[C@@H](N(C)C)C[C@H]1C(=O)Nc1ccc(/C=C/c2ccc(NC(=O)[C@@H]3C[C@H](N(C)C)CN3C(=O)c3ccccc3OCCC)cc2)cc1 [Example 227] | 1000 to 10000 nM |
| CCc1ccccc1C(=O)N1C[C@@H](N(C)C)C[C@H]1C(=O)Nc1ccc(/C=C/c2ccc(NC(=O)[C@@H]3C[C@H](N(C)C)CN3C(=O)c3ccccc3CC)cc2)cc1 [Example 228] | 1000 to 10000 nM |
| CN(C)[C@H]1C[C@@H](C(=O)Nc2ccc(/C=C/c3ccc(NC(=O)[C@@H]4C[C@H](N(C)C)CN4C(=O)c4ccccc4NCc4ccccc4)cc3)cc2)N(C(=O)c2ccccc2NCc2ccccc2)C1 [Example 229] | 1000 to 10000 nM |
| O=C(Nc1ccc(/C=C/c2ccc(NC(=O)[C@@H]3CCCN3C(=O)c3ncccc3-c3ccc(Cl)cc3)cc2)cc1)[C@@H]1CCCN1C(=O)c1ncccc1-c1ccc(Cl)cc1 [Example 230] | 100 to 1000 nM |
| CCOc1cccc(-c2cccnc2C(=O)N2CCC[C@H]2C(=O)Nc2ccc(/C=C/c3ccc(NC(=O)[C@@H]4CCCN4C(=O)c4ncccc4-c4cccc(OCC)c4)cc3)cc2)c1 [Example 231] | 1000 to 10000 nM |
| O=C(Nc1ccc(/C=C/c2ccc(NC(=O)[C@@H]3CCCN3C(=O)c3ncccc3-c3cccc(Cl)c3)cc2)cc1)[C@@H]1CCCN1C(=O)c1ncccc1-c1cccc(Cl)c1 [Example 232] | 1000 to 10000 nM |
| Cc1cccc(-c2cccnc2C(=O)N2CCC[C@H]2C(=O)Nc2ccc(/C=C/c3ccc(NC(=O)[C@@H]4CCCN4C(=O)c4ncccc4-c4cccc(C)c4)cc3)cc2)c1 [Example 233] | 1000 to 10000 nM |
| CCC/C=C/c1cccnc1C(=O)N1CCC[C@H]1C(=O)Nc1ccc(/C=C/c2ccc(NC(=O)[C@@H]3CCCN3C(=O)c3ncccc3/C=C/CCC)cc2)cc1 [Example 235] | 1000 to 10000 nM |
| O=C(Nc1ccc(/C=C/c2ccc(NC(=O)[C@@H]3CCCN3C(=O)c3ccccc3C3=CCCC3)cc2)cc1)[C@@H]1CCCN1C(=O)c1ccccc1C1=CCCC1 [Example 237] | 1000 to 10000 nM |
| C=Cc1ccccc1C(=O)N1CCC[C@H]1C(=O)Nc1ccc(/C=C/c2ccc(NC(=O)[C@@H]3CCCN3C(=O)c3ccccc3C=C)cc2)cc1 [Example 238] | 1000 to 10000 nM |
| Cc1ccc(-c2ccccc2C(=O)N2CCC[C@H]2C(=O)Nc2ccc(/C=C/c3ccc(NC(=O)[C@@H]4CCCN4C(=O)c4ccccc4-c4ccc(C)s4)cc3)cc2)s1 [Example 239] | 1000 to 10000 nM |
| CN(C(=O)[C@@H]1CCCN1C(=O)OCc1ccccc1)c1ccc(/C=C/c2ccc(N(C)C(=O)[C@@H]3CCCN3C(=O)OCc3ccccc3)cc2)cc1 [Example 244] | 1000 to 10000 nM |
| CCC(C)NC(=O)O[C@@H]1C[C@@H](C(=O)Nc2ccc(/C=C/c3ccc(NC(=O)[C@@H]4C[C@@H](O)CN4C(=O)OCc4ccccc4)cc3)cc2)N(C(=O)OCc2ccccc2)C1 (stereo partly drawn) [Example 245] | 1000 to 10000 nM |
| CC(C)NC(=O)O[C@@H]1C[C@@H](C(=O)Nc2ccc(/C=C/c3ccc(NC(=O)[C@@H]4C[C@@H](O)CN4C(=O)OCc4ccccc4)cc3)cc2)N(C(=O)OCc2ccccc2)C1 [Example 246] | 1000 to 10000 nM |
| CC(C)(C)NC(=O)O[C@@H]1C[C@@H](C(=O)Nc2ccc(/C=C/c3ccc(NC(=O)[C@@H]4C[C@@H](O)CN4C(=O)OCc4ccccc4)cc3)cc2)N(C(=O)OCc2ccccc2)C1 [Example 247] | 1000 to 10000 nM |

From patent US8143288B2, “Inhibitors of HCV replication” (priority 2005, dated 2012)
